The test system of one assay is Bmi-1 protein. Nature of the assay: Sandwich ELISA Assay (Bmi-1 protein level in HT-1080 cells after compound treatment). It is filed as cell-based. The conditions noted are these: Table 1, Bmi-1 sandwich ELISA, read-out: ELISA EC50 value for Bmi-1 protein. The gist of the method:
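Sandwich ELISA quantified Bmi-1 protein against recombinant standard (125–8000 pg/mL), with lysates captured overnight at 4 °C and signal by HRP/TMB at 450 nm (570 nm reference). Lysates came from HT-1080 cells incubated 40–48 h with test compounds in 0.5% DMSO.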
(In general: In an ELISA, binding on a coated surface is turned into a signal by an enzyme label.)
As for `OCc1nc2ccccn2c1-c1cncc(Nc2ccc(C(F)(F)F)cc2)n1` [compound 151, [3-(6-{[4-(trifluoromethyl)phenyl]amino}pyrazin-2-yl)imidazo[1,2-a]pyridin-2-yl]methanol], the EC50 (commonly the concentration needed to bring the measured effect to its halfway point) is 1 to 10 nM.
Still for that read-out and setting: with `CC(=O)c1ccc(Nc2cncc(-n3c(C)nc4ccccc43)n2)cc1` [compound 153, 1-(4-{[6-(2-methyl-1H-benzimidazol-1-yl)pyrazin-2-yl]amino}phenyl)ethanone] the figure was 1 to 10 nM; with `COc1nc2ccccc2n1-c1cncc(Nc2ccc(C(F)(F)F)cc2)n1` [compound 77, 6-(2-methoxy-1H-benzimidazol-1-yl)-N-[4-(trifluoromethyl)phenyl]pyrazin-2-amine], 10 to 100 nM.
For `FC(F)(F)c1ccc(Nc2cncc(-c3ccnc4ccccc34)n2)cc1` [compound 384, 6-(quinolin-4-yl)-N-[4-(trifluoromethyl)phenyl]pyrazin-2-amine], the EC50 was 100 to 3000 nM.
Same read-out and setting: with `Cc1nc2ccc(Cl)cc2n1-c1cncc(Nc2ccc(OC(F)F)cc2)n1` [compound 221, 6-(6-chloro-2-methyl-1H-benzimidazol-1-yl)-N-[4-(difluoromethoxy)phenyl]pyrazin-2-amine] the figure was 1 to 10 nM.
The same measure, in the same setting: for `COc1ccc(Nc2cc(N)cc(-n3c(C)nc4cc(F)c(F)cc43)n2)cc1` [compound 656, 6-(5,6-difluoro-2-methyl-1H-benzimidazol-1-yl)-N^2-(4-methoxyphenyl)pyridine-2,4-diamine] the value was 10 to 100 nM; for `N#Cc1cc(Nc2ccc(OC(F)(F)F)cc2)nc(-c2c(C(F)(F)F)nc3ccc(F)cn23)c1` [compound 222, 2-[6-fluoro-2-(trifluoromethyl)imidazo[1,2-a]pyridin-3-yl]-6-{[4-(trifluoromethoxy)phenyl]amino}pyridine-4-carbonitrile], 10 to 100 nM; for `Cc1nc2cc(F)c(F)cc2n1-c1cncc(Nc2ccc(OC(F)(F)F)cc2)n1` [compound 266, 6-(5,6-difluoro-2-methyl-1H-benzimidazol-1-yl)-N-[4-(trifluoromethoxy)phenyl]pyrazin-2-amine], 10 to 100 nM.
Still for that read-out and setting: with `Cc1nc2cc(F)c(F)cc2n1-c1cc(C#N)cc(Nc2ccc(OC(F)(F)F)cc2)n1` [compound 243, 2-(5,6-difluoro-2-methyl-1H-benzimidazol-1-yl)-6-{[4-(trifluoromethoxy)phenyl]amino}pyridine-4-carbonitrile] the figure was 100 to 3000 nM.
For the compound `Cc1nc2ccc(F)cc2n1-c1cccc(Nc2ccc(Cl)cc2)n1` [Cpd 608, N-(4-chlorophenyl)-6-(6-fluoro-2-methyl-1H-benzimidazol-1-yl)pyridin-2-amine], the EC50 lay within 10 to 100 nM.
With `COc1ccc(Nc2cncc(-c3c(C(F)(F)F)nc4ccccn34)n2)cc1Cl` [Cpd 22, N-(3-chloro-4-methoxyphenyl)-6-[2-(trifluoromethyl)imidazo[1,2-a]pyridin-3-yl]pyrazin-2-amine], the half-maximal effective concentration (EC50) was in the range of 1 to 10 nM.
For the compound `Cc1nn(C)c(Cl)c1-c1cncc(Nc2ccc(OC(F)(F)F)cc2)n1` [compound 414, 6-(5-chloro-1,3-dimethyl-1H-pyrazol-4-yl)-N-[4-(trifluoromethoxy)phenyl]pyrazin-2-amine], the EC50 lay within 10 to 100 nM.
On to `O=[N+]([O-])c1ccc(Nc2cncc(-c3c(C(F)(F)F)nc4ccccn34)n2)cc1` [Cpd 59, N-(4-nitrophenyl)-6-[2-(trifluoromethyl)imidazo[1,2-a]pyridin-3-yl]pyrazin-2-amine], for which the EC50 fell in the range of 100 to 3000 nM.
Consider `N#Cc1cc(Nc2ccc(C(F)(F)F)cc2)nc(-c2c(C(F)(F)F)nc3ccccn23)c1` [compound 210, 2-[2-(trifluoromethyl)imidazo[1,2-a]pyridin-3-yl]-6-{[4-(trifluoromethyl)phenyl]amino}pyridine-4-carbonitrile], for which the EC50 was in the range of 10 to 100 nM.
For `Cc1cc2nc(C)n(-c3cc(C#N)cc(Nc4ccc(C(F)(F)F)cc4)n3)c2cc1C` [Cpd 389, 2-{[4-(trifluoromethyl)phenyl]amino}-6-(2,5,6-trimethyl-1H-benzimidazol-1-yl)pyridine-4-carbonitrile], the EC50 was in the range of 100 to 3000 nM.
Regarding `CNC(=O)c1ccc(Nc2cncc(-n3c(C)nc4ccccc43)n2)cc1` [compound 186, N-methyl-4-{[6-(2-methyl-1H-benzimidazol-1-yl)pyrazin-2-yl]amino}benzamide], the EC50 was in the range of 100 to 3000 nM.
Turning to `Cc1nc2cc(F)c(F)cc2n1-c1cc(N)c(F)c(Nc2ccc(C(F)(F)F)cc2)n1` [compound 505, 6-(5,6-difluoro-2-methyl-1H-benzimidazol-1-yl)-3-fluoro-N^2-[4-(trifluoromethyl)phenyl]pyridine-2,4-diamine], the EC50 lay in the range of 10 to 100 nM.
In the case of `Cc1ccc(Nc2cncc(-n3c(C)nc4ccccc43)n2)cc1` [compound 562, 6-(2-methyl-1H-benzimidazol-1-yl)-N-(4-methylphenyl)pyrazin-2-amine], the half-maximal effective concentration (EC50) was 1 to 10 nM.
Same read-out and setting: with `Cc1nc2ccc(O)cn2c1-c1cc(C#N)cc(Nc2ccc(OC(F)(F)F)cc2)n1` [compound 396, 2-(6-hydroxy-2-methylimidazo[1,2-a]pyridin-3-yl)-6-{[4-(trifluoromethoxy)phenyl]amino}pyridine-4-carbonitrile] the figure was 10 to 100 nM; with `Cc1nc2ccccc2n1-c1cccc(Nc2ccc(C(F)(F)F)cc2)n1` [Cpd 37, 6-(2-methyl-1H-benzimidazol-1-yl)-N-[4-(trifluoromethyl)phenyl]pyridin-2-amine], 10 to 100 nM; with `Cc1nn2ccccc2c1-c1cncc(Nc2ccc(OC(F)(F)F)cc2)n1` [compound 500, 6-(2-methylpyrazolo[1,5-a]pyridin-3-yl)-N-[4-(trifluoromethoxy)phenyl]pyrazin-2-amine], 10 to 100 nM.
On to `FC(F)(F)c1nc2ccccn2c1-c1cncc(Nc2ccc(Cl)cc2)n1` [Cpd 10, N-(4-chlorophenyl)-6-[2-(trifluoromethyl)imidazo[1,2-a]pyridin-3-yl]pyrazin-2-amine], for which the EC50 was 1 to 10 nM.
For `Fc1cc2nc(C3CC3)n(-c3cncc(Nc4ccc(OC(F)F)cc4)n3)c2cc1F` [compound 460, 6-(2-cyclopropyl-5,6-difluoro-1H-benzimidazol-1-yl)-N-[4-(difluoromethoxy)phenyl]pyrazin-2-amine], the EC50 lay in the range of 10 to 100 nM.
Still for that read-out and setting: with `FC(F)Oc1ccc(Nc2cncc(-c3c(C(F)(F)F)nc4ccccn34)n2)cc1` [Cpd 24, N-[4-(difluoromethoxy)phenyl]-6-[2-(trifluoromethyl)imidazo[1,2-a]pyridin-3-yl]pyrazin-2-amine] the figure was less than 1 nM; with `Cc1nc2ccccc2n1-c1c[n+]([O-])cc(Nc2ccc(C(F)(F)F)cc2)n1` [compound 525, 6-(2-methyl-1H-benzimidazol-1-yl)-N-[4-(trifluoromethyl)phenyl]pyrazin-2-amine 4-oxide], 10 to 100 nM; with `Fc1cc(Nc2cncc(-c3c(C(F)(F)F)nc4ccccn34)n2)ccc1C(F)(F)F` [Cpd 208, N-[3-fluoro-4-(trifluoromethyl)phenyl]-6-[2-(trifluoromethyl)imidazo[1,2-a]pyridin-3-yl]pyrazin-2-amine], 10 to 100 nM.

Still in this assay, the particulars now being: read-out: ELISA EC50 value for Bmi-1 protein, Table 1, Bmi-1 sandwich ELISA.
Turning to `COc1ccc(Nc2nc(-n3c(C)nc4ccccc43)ccc2N)cc1` [Cpd 518, N^2-(4-methoxyphenyl)-6-(2-methyl-1H-benzimidazol-1-yl)pyridine-2,3-diamine], the EC50 was 10 to 100 nM.

These data come from US10584115B2, “Substituted pyridine and pyrazine BMI-1 inhibitors” (PTC Therapeutics, Inc., priority 2013, dated 2020).
